# Data taken from patent US9308200B2, “Dry powder formulation comprising a phosphodiesterase inhibitor” (CHIESI FARMACEUTICI S.p.A., priority 2010, dated 2016).
# Tested on: OVA-induced eosinophilia in BALF
# Test: Acute model of lung inflammation: OVA-induced eosinophilia in BALF of sensitized rats
# Assay type: in vivo
# Settings: male Brown-Norway rats; micronized C2 blended with lactose, intratracheal single dose 2 hours before antigen aerosol; range in brackets 0.016 to 0.051
# Procedure: The potency of one of the preferred compounds of the present invention was evaluated in vivo in an acute model of lung inflammation following a method described in Eur. J. Pharmacol., 2002 Feb. 22; 437(3):187-94 (which is incorporated herein by reference in its entirety), with minor modifications. Briefly, male Brown-Norway rats (150-200 g) were sensitized by intraperitoneal injection of a suspension containing ovalbumin (OVA, 1 mg/rat) and Al(OH)3 (100 mg/rat) in 1 mL of saline for 3 consecutive days. Two-three weeks later, the airway inflammation was induced by inhaled antigen (OVA, 1% in saline). Vehicle-control treated animals were exposed to an aerosol of saline. […] For the detection of inhibitory potency, micronized compound C2 was blended with lactose at different concentrations and administered by the intratracheal route as single dose 2 hours before antigen aerosol.
# A dose-response curve of the inhibitory effect of the test compound on OVA-induced eosinophilia in BALF was performed and the ED50 dose of compound C2 was taken as a measure of potency in this bioassay.
smiles,measurement,value
"CS(=O)(=O)Nc1ccc(C(=O)OC(Cc2c(Cl)c[n+]([O-])cc2Cl)c2ccc(OC(F)F)c(OCC3CC3)c2)cc1OCC1CC1 (single isomer, unassigned; (-)) [Compound C2, (−)-3-Cyclopropylmethoxy-4-methanesulfonylamino-benzoic acid 1-(3-cyclopropylmethoxy-4-difluoromethoxy-phenyl)-2-(3,5-dichloro-1-oxy-pyridin-4-yl)-ethyl ester]","ED50 dose, inhibition of OVA-induced eosinophilia in BALF",0.028 µmol/kg
